Results reported in patent publication US20210177823A1, “NEUROMODULATING COMPOSITIONS AND RELATED THERAPEUTIC METHODS FOR THE TREATMENT OF CANCER” (Flagship Pioneering Innovations V, Inc., priority 2016, published 2021).
“Also recorded” adds a separate entry of the source.

What was measured:
[1] = tested on: BXPC3 pancreatic cancer cells; test: Cancer cell growth in low-serum spheroid culture, Cell Titer Glo readout; assay type: cell-based; details: at low micromolar concentration; tested 10 nM-10 uM
Protocol: (§1) Cancer cell lines were grown in appropriate cell culture medium. On day 0, cells were plated in black organogenix nanocult 96-well plates with low-bind honeycomb pattern. Cells were plated in a low serum medium to increase the dynamic range observable for growth promotion. Within three days spheroids were visible. On day 1 post plating, compounds were added at a range of doses to the cells, between mid-nanomolar and low micromolar, spanning at least a 100× dose range. On day 4 post plating, number of cells are quantified by staining with Cell Titer Glo and reading on a plate reader. We observed that adenosine at 10-200 μM enhances the growth of multiple pancreatic cancer cell lines (CFPAC, PANC-1, PL45, ASPC-1, CAPAN-1, CAPAN-2) by at least 10% increased signal over 24 hours than untreated cells. Upon follow-up of the adenosine pathway, we performed a similar assay with chemical antagonists of adenosine receptors at a range of concentrations between 10 nM-10 uM.

[2] = tested on: NCI-H82 small cell lung cancer cells; test: as above; assay type: cell-based; details: at low micromolar concentration; tested 10 nM-10 uM
Protocol: as §1

[3] = tested on: patient-derived xenograft tumors from patient 5217; test: SCLC PDX subcutaneous tumor with implanted microdose drug delivery device, immunohistochemistry; assay type: in vivo, nude mice; details: patient 5217 PDX, ~10× lower DRD2 mRNA than patient 5197; device 24 hours in situ
Protocol: (§2) Small cell lung cancer cells derived from a human donor (CrownBio, San Diego Calif.) were injected subcutaneously into the flanks of nude mice. Tumors were grown to a size of approximately 6-10 mm before device implantation.
(§3) Microdose drug delivery devices were manufactured as described in Jonas et al., Sci. Transl. Med. 7, 284ra57 (2015). Briefly, cylindrical, micro-scale devices with 0.82 (diameter)×4 mm (length) were manufactured from medical-grade Delrin acetyl resin blocks (DuPont) by micromachining (CNC Micromachining Center, Cameron). Circular reservoirs were shaped on the outer surface of devices in dimensions of 230 um (diameter)×250 um (depth). Drug-polymer mixtures were packed into device reservoirs using a tapered, metal needle (Electron Microscopy Sciences) until the reservoirs were completely filled.
Devices were implanted directly into the mouse tumor using a 19-gauge spinal biopsy needle (Angiotech) and a retractable needle obturator to push the device into the tissue. […]
The flank tumor was excised and the tissue containing the device was fixed for 24 hours in 10% formalin and perfused with paraffin. […] Sections were antibody-stained by standard immunohistochemistry using antibodies against cleaved-caspase-3 (CC3), KI-67, and phospho-AKT (Cell Signaling) and scored using an ImageJ image (v1.48) analysis algorithm in a blinded manner.

[4] = tested on: patient-derived xenograft tumors from patient 5197; test: SCLC PDX subcutaneous tumor with implanted microdose drug delivery device, immunohistochemistry (CC3, phospho-AKT); assay type: in vivo, nude mice; details: intratumoral device reservoir, 24 hours in situ; patient 5197 PDX
Protocol: as §2, §3
Devices were implanted directly into the mouse tumor using a 19-gauge spinal biopsy needle (Angiotech) and a retractable needle obturator to push the device into the tissue. Devices containing the drugs remained in situ for 24 hours.
The flank tumor was excised and the tissue containing the device was fixed for 24 hours in 10% formalin and perfused with paraffin. This specimen was sectioned using a standard microtome and tissue sections were collected from each reservoir. Sections were antibody-stained by standard immunohistochemistry using antibodies against cleaved-caspase-3 (CC3), KI-67, and phospho-AKT (Cell Signaling) and scored using an ImageJ image (v1.48) analysis algorithm in a blinded manner.

[5] = tested on: Glioblastoma lines A172, LN-18, T98G, LN-229, U87 MG, and U118 MG; test: Colony formation assay in glioblastoma cell lines (Cyto60 fluorescence); assay type: cell-based; details: 1 μM to 20 μM, day 9, LN-229, U87, U118
Protocol: Glioblastoma lines A172, LN-18, T98G, LN-229, U87 MG, and U118 MG were passaged in culture per manufacturer's recommendations.
On day 0 of the experiment, cells were plated in 24 well plates at a density of 500 cells per well in triplicate. On day 1, DRD2 antagonists haloperidol and L741,626 were added to the wells at a range of concentrations between 1 μM and 20 μM. Media was changed every three days. On day 9 of the experiment, cells were fixed with formalin and stained with Cyto60 (a nucleic acid stain). Fluorescence was read on a Licor-Odyssey imager to assess the number of viable cells in the assay.

[6] = tested on: pancreatic cancer cell lines (CFPAC, PANC-1, PL45, ASPC-1, CAPAN-1, CAPAN-2); test: Cancer cell growth in low-serum spheroid culture, Cell Titer Glo readout; assay type: cell-based; details: adenosine at 10-200 μM, over 24 hours
MIAPaCa2 Fluc cells = test: Orthotopic MIAPACA2 pancreatic cancer model, tumor weight at end of study; assay type: in vivo, Nude mice (Nu/Nu); details: daily IP, three weeks after initiation of dosing; for reduction in tumor weight at the end of study: compared to vehicle-treated group
Protocol: MIAPaCa2 Fluc cells were grown in DMEM tissue culture media with 10% fetal calf serum, 2.5% Horse Serum, 1% penicillin/streptomycin and Puromycin (20 ug/mL). On the day of implantation, cells were washed in PBS, trypsinized and resuspended at a density of 2×10^6 cells/ml in a Matrigel solution prior to being implanted into the pancreas a volume of 0.05 mL using a 25 G needle. Nude mice (Nu/Nu) were anesthetized and the pancreas exposed via peritoneal incision and physical displacement of the spleen. Cells were injected into the pancreas in a total volume of 0.05 mL and the surgical wound closed with VetBond. Bioluminescence was assessed by administration of D-luciferin and imaging on an IVIS system. Mice with leakage of bioluminescent signal immediately after surgery were removed from study. Mice were randomized into groups of equal mean bioluminescence approximately 14 days post-implant. […] One group of mice received haloperidol alone, a second group received gemcitabine chemotherapy (the standard of care for human pancreatic cancer treatment), and a third group received a combination of haloperidol and gemcitabine. For groups also receiving gemcitabine, gemcitabine was dosed 50 mg/kg IP daily. Tumor growth was determined bi-weekly with bioluminescent measurement. The study was terminated three weeks after initiation of drug dosing. At termination, mice were sacrificed and pancreas collected and weighed.

CCCn1c(=O)c2[nH]c(C34CC5CC(CC3C5)C4)nc2n(CCC)c1=O [KW3902]
inhibition of growth of BXPC3 pancreatic cancer cells [1]: inhibited the growth
inhibition of growth of NCI-H82 small cell lung cancer cells [2]: inhibited the growth

OC1(c2ccc(Cl)cc2)CCN(Cc2c[nH]c3ccccc23)CC1 [L-741,626]
impact of treatment on tumor [3]: at all not impacted; also recorded: not impacted at all
cell killing as measured by CC3 positive tissue [4]: dose-dependent cell killing
phospho-AKT staining gradient (dopamine receptor signaling) [4]: negative gradient
number of glioblastoma cells growing in culture compared to DMSO control [5]: reduce the number of glioblastoma cells

O=C(Cc1ccccc1)Nc1nc2ccc(Cl)cc2c2nc(-c3ccco3)nn12 [MRS-1220]
inhibition of growth of NCI-H82 small cell lung cancer cells [2]: inhibited the growth

Nc1ncnc2c1ncn2[C@@H]1O[C@H](CO)[C@@H](O)[C@H]1O [adenosine]
enhancement of growth, increased signal than untreated cells [6]: at least 10%

N.N.[Cl][Pt][Cl] [cisplatin]
cell killing as measured by CC3 positive tissue [4]: minimal cell killing

Nc1ccn([C@@H]2O[C@H](CO)[C@@H](O)C2(F)F)c(=O)n1 [gemcitabine]
reduction in tumor weight at the end of study (MIAPaCa2 Fluc cells): equivalent

O=C(CCCN1CCC(O)(c2ccc(Cl)cc2)CC1)c1ccc(F)cc1 [haloperidol]
reduction in tumor weight at the end of study (MIAPaCa2 Fluc cells): ~50%
tumor weight at the end of study (MIAPaCa2 Fluc cells; vehicle 300 mg): 150 mg
number of glioblastoma cells growing in culture compared to DMSO control [5]: reduce the number of glioblastoma cells
